Data taken from PMC7591920, “A protein tertiary structure mimetic modulator of the Hippo signalling pathway” (Nature Communications, 2020).
Bridge positions count the residues as written; N and C are the ends. Peptide text beside a SMILES is read from it.

Columns and labels:
[1] = system: primary juvenile (P5–P6) rat cardiomyocytes; assay: Cell cycle activity assay (Ki67/αActinin) in juvenile rat cardiomyocytes; format: cell-based; conditions: c = 10 µM, 4 days, relative to DMSO-treated cells (100), mean of N = 6
Protocol: One day after seeding, the cells were treated with test compounds of interest. Treatments were applied with an ECHO 520 acoustic dispenser (Labcyte) and medium was added to the wells. Four days after treatment, the cells were fixed with 4% formaldehyde (Roth) and immunostained in 0.2% Triton-X100 (Roth) in PBS (Gibco) supplemented with 5% FBS. […] Samples were then imaged and analysed on an ImageXpress XL automated microscope (Molecular Devices). Data are depicted as means ± SEM.

rat heart cells = assay: Cell toxicity assessment on rat heart cells in culture; conditions: c(peptide) = 10 µM
Protocol: whole heart cells monitored by fluorescence microscopy after 90 minutes treatments (scale bar: 25 µm), number of […]
4E as well as control compounds (SB203580, CHIR99021) on rat heart cells in culture (c(peptide) = 10 µM). Number of independent biological replicates: n = 6, error bars = SEM. […]
cytometry analysis of live cells after 90 min incubation at 5 µM: Representative histogram plot, (-) DMSO control). Source data are provided as a Source Data file.
(1 picture or pasted object on this page, not shown here)

GST-hTEAD1 = target: T1, GST-hTEAD1 (Homo sapiens, UniProt P28347); assay: SPR binding to immobilised GST-hTEAD1; conditions: GST-hTEAD1 amine-coupled on CM5, multi-cycle, steady-state fit 1:1 model, 10 mM HEPES 150 mM NaCl 0.05% Tween-20 pH 7.4, 0.3% DMSO, 20 °C, Fig. 1 values n = 1 replicate
T1 construct: CDNA of hTEAD1(209–426) fused with an N-terminal GST tag; made in house; host or cells: Escherichia coli BL21 DE3 RIL(K+)
Protocol: (§1) Sensor chips Series S CM5 (Research grade) were obtained from GE Healthcare. Prior to use, the sensor chips were equilibrated at room temperature for 15 min to prevent water condensation on the detector side of the sensor chip surface. A running buffer was prepared composed of 10 mM HEPES, 150 mM NaCl, and 0.05% (w/v) Tween-20, pH 7.4, and the system was equilibrated at 20 °C using a flow rate of 30 µL min^−1 after docking of the sensor chip. Ligand binding experiments have been performed applying the concept of multi-cycle kinetics. A contact time of 45 s was selected, followed by a 6-min dissociation phase to allow for complete dissociation of the analyte prior to the next cycle. […] Typically, seven concentrations of the analytes have been examined applying a threefold dilution pattern with 30 µM as top concentration. For the analysis, five running buffer blanks were injected to equilibrate the instrument. […] The carboxyl-dextran surface was activated for 7 min with 0.05 M NHS and 0.2 M EDC, followed by an injection of the proteins in 10 mM MES pH 6.4 at a concentration of 30–50 µg mL^−1. […] This was followed by a deactivation of the residual esters by injecting a solution of 0.5 M ethanolamine pH 8.0 for 7 min before engaging in ligand binding experiments. Reference surfaces were prepared accordingly, omitting the injection of protein over the activated reference surface.

mTEAD4 [2] = target: T2, mTEAD4 (Mus musculus, UniProt Q62296); assay: SPR binding to immobilised mTEAD4; conditions: mTEAD4 amine-coupled on CM5, multi-cycle, steady-state fit 1:1 model, 10 mM HEPES 150 mM NaCl 0.05% Tween-20 pH 7.4, 0.3% DMSO, 20 °C, Fig. 1 values n = 1 replicate
T2 construct: Mouse TEAD4(210–427) cDNA fused with a 6x His-tag and a 3C protease cleavage site; 6x His-tag; 3C protease cleavage site; made in house; host or cells: E. coli BL21 DE3 RIL(K+)
Protocol: as §1

mTEAD4 [3] = target: T2, mTEAD4; assay: Competition fluorescence polarization with mTEAD4 (alanine scan); format: binding; conditions: Ac-peptide vs FITC-labelled tracer peptide 10 nM, mTEAD4 400 nM, 1 h
Protocol: Competition FP: N-terminally acetylated peptides were diluted 1:1 in a 384-well plate (5 μL, 75 μM−9 pM). Ten microlitres of a mixture (1:1) of mTEAD4 and FITC-labelled peptide was added (final concentrations: acetylated peptides = 50 μM−6 pM; mTEAD4 protein = 400 nM; FITC-labelled tracer peptide = 10 nM). After 1 h, FP was measured (λ(ex) = […]). IC50 was determined from the binding curve with GraphPad from Prism.

T1 sequence (P28347 209-426): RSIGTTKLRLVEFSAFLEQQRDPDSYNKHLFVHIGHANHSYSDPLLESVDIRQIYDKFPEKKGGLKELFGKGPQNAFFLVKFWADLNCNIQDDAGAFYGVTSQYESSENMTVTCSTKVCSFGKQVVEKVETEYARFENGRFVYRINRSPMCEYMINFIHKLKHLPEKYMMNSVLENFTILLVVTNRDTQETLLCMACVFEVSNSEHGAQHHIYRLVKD
T2 sequence (Q62296 210-427): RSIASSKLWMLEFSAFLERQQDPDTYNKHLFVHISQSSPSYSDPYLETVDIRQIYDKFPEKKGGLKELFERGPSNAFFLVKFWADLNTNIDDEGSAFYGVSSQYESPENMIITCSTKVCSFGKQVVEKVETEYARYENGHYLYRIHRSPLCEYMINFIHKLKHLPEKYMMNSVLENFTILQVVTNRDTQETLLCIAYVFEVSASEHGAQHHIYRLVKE

SMILES	Kd (GST-hTEAD1)	Kd (mTEAD4 [2])	IC50 (mTEAD4 [3])	further results
Cc1c[nH]c(-c2cnc(NCCNc3ccc(C#N)cn3)nc2-c2ccc(Cl)cc2Cl)n1 [CHIR99021, reference compound]				Cell cycle activity, MEAN [1]: 152.398; Total cell number (% DMSO control) (rat heart cells; raw data replicate 1): 164.318 % DMSO control; Total cell number (% DMSO control) (rat heart cells; raw data replicate 2): 154.314 % DMSO control; Total cell number (% DMSO control) (rat heart cells; raw data replicate 3): 186.382 % DMSO control; Total cell number (% DMSO control) (rat heart cells; raw data replicate 4): 116.435 % DMSO control; Total cell number (% DMSO control) (rat heart cells; raw data replicate 5): 128.897 % DMSO control; Total cell number (% DMSO control) (rat heart cells; raw data replicate 6): 164.042 % DMSO control
C[S+]([O-])c1ccc(-c2nc(-c3ccncc3)c(-c3ccc(F)cc3)[nH]2)cc1 (stereo not drawn) [SB203580, reference compound]				Cell cycle activity, MEAN [1]: 122.95
CC(=O)N[C@@H](CC(=O)O)C(=O)N1CCC[C@H]1C(=O)N[C@H](C(=O)N[C@H](C(=O)N[C@@H](CCC(=O)O)C(=O)N[C@@H](CCC(=O)O)C(=O)N[C@@H](Cc1c[nH]cn1)C(=O)N[C@@H](Cc1ccccc1)C(=O)N[C@@H](CCCNC(=N)N)C(=O)N[C@@H](CCCNC(=N)N)C(=O)N[C@@H](CO)C(=O)N[C@@H](CC(C)C)C(=O)NCC(=O)N[C@@H](CCCCN)C(=O)N[C@@H](CC(N)=O)C(=O)N[C@@H](Cc1ccc(O)cc1)C(N)=O)C(C)C)C(C)C [compound 2] (Ac-DPVVEEHFRRSLGKNY-NH2)	19.4 µM	21.8 µM		
CC[C@H](C)[C@H](NC(=O)[C@H](CO)NC(=O)[C@@H](NC(=O)[C@H](CO)NC(=O)[C@H](CC(N)=O)NC(=O)[C@@H]1CCCN1C(=O)[C@H](C)NC(=O)[C@@H]1CCCN1C(=O)[C@H](CCC(=O)O)NC(=O)[C@@H]1CCCN1C(=O)[C@H](CCC(=O)O)NC(=O)[C@H](CCCCN)NC(C)=O)C(C)C)C(=O)N[C@H](C(=O)NCC(N)=O)[C@@H](C)O [compound 3] (Ac-KEPEPAPNSVSITG-NH2)	> 100 µM	> 100 µM		
CC[C@H](C)[C@H](NC(=O)[C@H](CCC(N)=O)NC(=O)[C@H](CC(C)C)NC(=O)[C@H](Cc1c[nH]c2ccccc12)NC(=O)[C@@H](NC(=O)[C@H](CC(=O)O)NC(C)=O)[C@@H](C)O)C(=O)N[C@@H](CCCCN)C(=O)N[C@@H](C)C(=O)N[C@@H](C)C(N)=O [compound 6] (Ac-DTWLQIKAA-NH2)	> 100 µM	> 100 µM		
CC[C@H](C)[C@H](NC(=O)[C@H](CCC(N)=O)NC(=O)[C@H](CC(C)C)NC(=O)[C@H](Cc1c[nH]c2ccccc12)NC(=O)[C@@H](NC(=O)[C@H](CC(=O)O)NC(=O)CNC(=O)[C@H](CC(C)C)NC(=O)[C@H](C)NC(=O)[C@H](CCCCN)NC(=O)[C@H](C)NC(=O)[C@H](Cc1ccccc1)NC(=O)[C@H](Cc1c[nH]cn1)NC(=O)[C@H](CC(=O)O)NC(=O)[C@H](CC(=O)O)NC(=O)[C@@H](NC(=O)[C@H](CO)NC(C)=O)C(C)C)[C@@H](C)O)C(=O)N[C@@H](C)C(=O)N[C@@H](C)C(=O)N[C@@H](C)C(N)=O [compound 13] (Ac-SVDDHFAKALGDTWLQIAAA-NH2)	17 µM	12 µM		
CC[C@H](C)[C@@H]1NC(=O)[C@H](CCC(N)=O)NC(=O)[C@H](CC(C)C)NC(=O)[C@H](Cc2c[nH]c3ccccc23)NC(=O)[C@H]([C@@H](C)O)NC(=O)[C@H](CC(=O)O)NC(=O)CNC(=O)[C@H](CC(C)C)NC(=O)[C@H](C)NC(=O)[C@H](CCCCN)NC(=O)[C@H](C)NC(=O)[C@H](Cc2ccccc2)NC(=O)[C@H](C)NC(=O)[C@H](CC(=O)O)NC(=O)[C@@H](NC(=O)[C@@H](NC(=O)[C@H](CO)NC(C)=O)C(C)C)CCC(=O)NCCCC[C@@H](C(=O)N[C@@H](C)C(=O)N[C@@H](C)C(N)=O)NC1=O [compound 17] (Ac-SVEDAFAKALGDTWLQIKAA-NH2; lactam 3-18)	> 100 µM	> 100 µM	> 100 µM	
CC[C@H](C)[C@@H]1NC(=O)[C@H](CCC(N)=O)NC(=O)[C@H](CC(C)C)NC(=O)[C@H](Cc2c[nH]c3ccccc23)NC(=O)[C@H]([C@@H](C)O)NC(=O)[C@H](CC(=O)O)NC(=O)CNC(=O)[C@H](CC(C)C)NC(=O)[C@H](C)NC(=O)[C@H](CCCCN)NC(=O)[C@H](C)NC(=O)[C@H](C)NC(=O)[C@H](Cc2c[nH]cn2)NC(=O)[C@H](CC(=O)O)NC(=O)[C@@H](NC(=O)[C@@H](NC(=O)[C@H](CO)NC(C)=O)C(C)C)CCC(=O)NCCCC[C@@H](C(=O)N[C@@H](C)C(=O)N[C@@H](C)C(N)=O)NC1=O [compound 18] (Ac-SVEDHAAKALGDTWLQIKAA-NH2; lactam 3-18)	> 100 µM	> 100 µM	> 50 µM	
CC[C@H](C)[C@@H]1NC(=O)[C@H](CCC(N)=O)NC(=O)[C@H](CC(C)C)NC(=O)[C@H](Cc2c[nH]c3ccccc23)NC(=O)[C@H]([C@@H](C)O)NC(=O)[C@H](CC(=O)O)NC(=O)CNC(=O)[C@H](CC(C)C)NC(=O)[C@H](C)NC(=O)[C@H](C)NC(=O)[C@H](C)NC(=O)[C@H](Cc2ccccc2)NC(=O)[C@H](Cc2c[nH]cn2)NC(=O)[C@H](CC(=O)O)NC(=O)[C@@H](NC(=O)[C@@H](NC(=O)[C@H](CO)NC(C)=O)C(C)C)CCC(=O)NCCCC[C@@H](C(=O)N[C@@H](C)C(=O)N[C@@H](C)C(N)=O)NC1=O [compound 19] (Ac-SVEDHFAAALGDTWLQIKAA-NH2; lactam 3-18)	1.7 ± 0.01 µM			
CC[C@H](C)[C@@H]1NC(=O)[C@H](CCC(N)=O)NC(=O)[C@H](CC(C)C)NC(=O)[C@H](Cc2c[nH]c3ccccc23)NC(=O)[C@H]([C@@H](C)O)NC(=O)[C@H](CC(=O)O)NC(=O)CNC(=O)[C@H](C)NC(=O)[C@H](C)NC(=O)[C@H](CCCCN)NC(=O)[C@H](C)NC(=O)[C@H](Cc2ccccc2)NC(=O)[C@H](Cc2c[nH]cn2)NC(=O)[C@H](CC(=O)O)NC(=O)[C@@H](NC(=O)[C@@H](NC(=O)[C@H](CO)NC(C)=O)C(C)C)CCC(=O)NCCCC[C@@H](C(=O)N[C@@H](C)C(=O)N[C@@H](C)C(N)=O)NC1=O [compound 20] (Ac-SVEDHFAKAAGDTWLQIKAA-NH2; lactam 3-18)	> 100 µM	> 100 µM	> 100 µM	
CC[C@H](C)[C@@H]1NC(=O)[C@H](CCC(N)=O)NC(=O)[C@H](CC(C)C)NC(=O)[C@H](Cc2c[nH]c3ccccc23)NC(=O)[C@H](C)NC(=O)[C@H](CC(=O)O)NC(=O)CNC(=O)[C@H](CC(C)C)NC(=O)[C@H](C)NC(=O)[C@H](CCCCN)NC(=O)[C@H](C)NC(=O)[C@H](Cc2ccccc2)NC(=O)[C@H](Cc2c[nH]cn2)NC(=O)[C@H](CC(=O)O)NC(=O)[C@@H](NC(=O)[C@@H](NC(=O)[C@H](CO)NC(C)=O)C(C)C)CCC(=O)NCCCC[C@@H](C(=O)N[C@@H](C)C(=O)N[C@@H](C)C(N)=O)NC1=O [compound 22] (Ac-SVEDHFAKALGDAWLQIKAA-NH2; lactam 3-18)		113 ± 3.5 µM	> 100 µM	
CC[C@H](C)[C@@H]1NC(=O)[C@H](CCC(N)=O)NC(=O)[C@H](CC(C)C)NC(=O)[C@H](C)NC(=O)[C@H]([C@@H](C)O)NC(=O)[C@H](CC(=O)O)NC(=O)CNC(=O)[C@H](CC(C)C)NC(=O)[C@H](C)NC(=O)[C@H](CCCCN)NC(=O)[C@H](C)NC(=O)[C@H](Cc2ccccc2)NC(=O)[C@H](Cc2c[nH]cn2)NC(=O)[C@H](CC(=O)O)NC(=O)[C@@H](NC(=O)[C@@H](NC(=O)[C@H](CO)NC(C)=O)C(C)C)CCC(=O)NCCCC[C@@H](C(=O)N[C@@H](C)C(=O)N[C@@H](C)C(N)=O)NC1=O [compound 23] (Ac-SVEDHFAKALGDTALQIKAA-NH2; lactam 3-18)		15 ± 0.85 µM	> 50 µM	
